Results from ChEMBL document CHEMBL3108668, “Antitumor activity of jujuboside B and the underlying mechanism via induction of apoptosis and autophagy” (J Nat Prod, 2014).
The source made the active and inactive calls. No cut-off for these calls is given here.

Experiments:
HCT-116 [1] = experiment: Induction of apoptosis in human HCT116 cells assessed as necrotic cells at 100 uM after 24 hrs by annexin V-FITC/propidium iodide staining-based flow cytometry (reference value: 0.68%); assay type: functional
AGS [2] = experiment: Induction of apoptosis in human AGS cells assessed as early apoptotic cells at 150 uM after 24 hrs by annexin V-FITC/propidium iodide staining-based flow cytometry (reference value: 6.6%); assay type: functional
AGS [3] = experiment: Induction of apoptosis in human AGS cells assessed as increase in pp38 level at 25 to 150 uM after 24 hrs by Western blotting analysis; assay type: functional, cell-based
AGS [4] = experiment: Cytotoxicity against human AGS cells at 100 uM after 24 hrs by MTT assay in presence of bafilomycin A1; assay type: functional, cell-based
AGS [5] = experiment: Induction of apoptosis in human AGS cells assessed as early apoptotic cells at 25 uM after 24 hrs by annexin V-FITC/propidium iodide staining-based flow cytometry (reference value: 6.6%); assay type: functional
AGS [6] = experiment: Induction of apoptosis in human AGS cells assessed as apoptotic cells at 100 uM after 24 hrs by annexin V-FITC/propidium iodide staining-based flow cytometry; assay type: functional
AGS [7] = experiment: Induction of apoptosis in human AGS cells assessed as reduction of FasL level at 100 uM after 24 hrs by Western blotting analysis in presence of SB202190; assay type: functional, cell-based
HCT-116 [8] = experiment: Cytotoxicity against human HCT116 cells after 24 hrs by MTT assay; assay type: functional, cell-based
HCT-116 [9] = experiment: Induction of apoptosis in human HCT116 cells assessed as early apoptotic cells at 25 uM after 24 hrs by annexin V-FITC/propidium iodide staining-based flow cytometry (reference value: 3.61%); assay type: functional
AGS [10] = experiment: Induction of apoptosis in human AGS cells assessed as increase in pJNK level at 25 to 150 uM after 24 hrs by Western blotting analysis; assay type: functional, cell-based
HCT-116 [11] = experiment: Induction of autophagy in human HCT116 cells assessed as massive vacuole formation at 50 uM after 24 hrs by fluorescence microscopy; assay type: functional, cell-based
AGS [12] = experiment: Induction of apoptosis in human AGS cells assessed as increase in pp38 level at 100 uM after 24 hrs by Western blotting analysis in presence of bafilomycin A1; assay type: functional, cell-based
AGS [13] = experiment: Induction of apoptosis in human AGS cells assessed as necrotic cells at 50 uM after 24 hrs by annexin V-FITC/propidium iodide staining-based flow cytometry (reference value: 0.12%); assay type: functional
HCT-116 [14] = experiment: Induction of apoptosis in human HCT116 cells assessed as cell shrinkage at >100 uM after 24 hrs by acridine orange staining-based microscopy; assay type: functional
HCT-116 [15] = experiment: Induction of apoptosis in human HCT116 cells assessed as necrotic cells at 25 uM after 24 hrs by annexin V-FITC/propidium iodide staining-based flow cytometry (reference value: 0.68%); assay type: functional
AGS [16] = experiment: Induction of apoptosis in human AGS cells assessed as apoptotic cells at 25 uM after 24 hrs by annexin V-FITC/propidium iodide staining-based flow cytometry; assay type: functional
AGS [17] = experiment: Induction of apoptosis in human AGS cells assessed as increase in LC3-2 level at 50 uM after 24 hrs by Western blotting analysis in presence of bafilomycin A1; assay type: functional, cell-based
AGS [18] = experiment: Induction of apoptosis in human AGS cells assessed as reduction of caspase3 activation at 100 uM after 24 hrs by Western blotting analysis in presence of SB202190; assay type: functional, cell-based
HCT-116 [19] = experiment: Induction of apoptosis in human HCT116 cells assessed as necrotic cells at 150 uM after 24 hrs by annexin V-FITC/propidium iodide staining-based flow cytometry (reference value: 0.68%); assay type: functional
HCT-116 [20] = experiment: Cell cycle arrest in human HCT116 cells assessed as accumulation at sub G1 phase after 24 hrs by propidium iodide staining-based flow cytometry; assay type: functional
AGS [21] = experiment: Induction of apoptosis in human AGS cells assessed as caspase-3 activation after 24 hrs by Western blotting analysis; assay type: functional, cell-based
AGS [22] = experiment: Induction of apoptosis in human AGS cells assessed as reduction of FasL level at 100 uM after 24 hrs by Western blotting analysis in presence of SP600125; assay type: functional, cell-based
HCT-116 [23] = experiment: Antitumor activity against human HCT116 cells xenografted in BALB/c nude mouse at 40 mg/kg, ip administered 3 times a week for 5 weeks relative to control; assay type: functional; details: route intraperitoneal
AGS [24] = experiment: Induction of apoptosis in human AGS cells assessed as necrotic cells at 25 uM after 24 hrs by annexin V-FITC/propidium iodide staining-based flow cytometry (reference value: 0.12%); assay type: functional
AGS [25] = experiment: Induction of apoptosis in human AGS cells assessed as reduction of caspase3 activation at 100 uM after 24 hrs by Western blotting analysis in presence of SP600125; assay type: functional, cell-based
AGS [26] = experiment: Induction of apoptosis in human AGS cells assessed as procaspase-9 level at 25 to 150 uM after 24 hrs by Western blotting analysis; assay type: functional, cell-based
AGS [27] = experiment: Cytotoxicity against human AGS cells after 24 hrs by MTT assay; assay type: functional, cell-based
AGS [28] = experiment: Induction of apoptosis in human AGS cells assessed as late apoptotic cells at 150 uM after 24 hrs by annexin V-FITC/propidium iodide staining-based flow cytometry (reference value: 7.3%); assay type: functional
AGS [29] = experiment: Induction of apoptosis in human AGS cells assessed as reduction of caspase3 activation at 100 uM after 24 hrs by Western blotting analysis in presence of bafilomycin A1; assay type: functional, cell-based
Mus musculus = experiment: Toxicity in BALB/c nude mouse xenografted with human HCT116 cells assessed as change in body weight at 40 mg/kg, ip administered 3 times a week for 5 weeks; assay type: organism-based, HCT-116; design: dose 40 mg/kg, route intraperitoneal; details: in vivo, 840 h
AGS [30] = experiment: Induction of apoptosis in human AGS cells assessed as increase in pJNK level at 100 uM after 24 hrs by Western blotting analysis in presence of bafilomycin A1; assay type: functional, cell-based
AGS [31] = experiment: Induction of apoptosis in human AGS cells assessed as decrease in pERK level at 25 to 150 uM after 24 hrs by Western blotting analysis; assay type: functional, cell-based
HCT-116 [32] = experiment: Induction of apoptosis in human HCT116 cells assessed as cell rounding at >100 uM after 24 hrs by acridine orange staining-based microscopy; assay type: functional
HCT-116 [33] = experiment: Induction of apoptosis in human HCT116 cells assessed as membrane blebbing at >100 uM after 24 hrs by acridine orange staining-based microscopy; assay type: functional, cell-based
AGS [34] = experiment: Cell cycle arrest in human AGS cells assessed as accumulation at sub G1 phase at 100 uM after 24 hrs by propidium iodide staining-based flow cytometry; assay type: functional
HCT-116 [35] = experiment: Induction of apoptosis in human HCT116 cells assessed as late apoptotic cells at 25 uM after 24 hrs by annexin V-FITC/propidium iodide staining-based flow cytometry (reference value: 2.71%); assay type: functional
HCT-116 [36] = experiment: Induction of autophagy in human HCT116 cells assessed as massive vacuole formation at 50 uM after 24 hrs by acridine orange staining-based fluorescence microscopy; assay type: functional, cell-based
AGS [37] = experiment: Induction of apoptosis in human AGS cells assessed as PARP-1 cleavage after 24 hrs by Western blotting analysis; assay type: functional, cell-based

CC(C)=C[C@H]1C[C@](C)(O)[C@@H]2[C@H]3CC[C@@H]4[C@@]5(C)CC[C@H](O[C@@H]6OC[C@H](O)[C@H](O[C@@H]7O[C@H](CO)[C@@H](O)[C@H](O)[C@H]7O[C@@H]7OC[C@@H](O)[C@H](O)[C@H]7O)[C@H]6O[C@@H]6O[C@@H](C)[C@H](O)[C@@H](O)[C@H]6O)C(C)(C)[C@@H]5CC[C@@]4(C)[C@@]34CO[C@@]2(C4)O1
Activity (HCT-116 [1]): 3.05% | Activity (AGS [2]): 27.43% | Activity (AGS [3]): Active | Activity (AGS [4]): Active | Activity (AGS [5]): 5.57% | Activity (AGS [6]): 28.85% | Activity (AGS [7]): inactive | Activity (HCT-116 [8]): Dose-dependent effect | IC50 (HCT-116 [8]; HCT-116, 24 h): 114 µM | Activity (HCT-116 [9]): 2.64% | Activity (AGS [10]): Active | Activity (HCT-116 [11]): Active | Activity (AGS [12]): Active | Activity (AGS [13]): 0.53% | Activity (HCT-116 [14]): Active | Activity (HCT-116 [15]): 0.67% | Activity (AGS [16]): 10.81% | Activity (AGS [17]): Active | Activity (AGS [18]): inactive | Activity (HCT-116 [19]): 5.1% | Activity (HCT-116 [20]): Dose-dependent effect | Activity (AGS [21]): Dose-dependent effect | Activity (AGS [22]): inactive | Activity (HCT-116 [23]): 60% | Activity (AGS [24]): 0.55% | Activity (AGS [25]): inactive | Activity (AGS [26]): inactive | Activity (AGS [27]): Dose-dependent effect | IC50 (AGS [27]): 107 µM | Activity (AGS [28]): 12.12% | Activity (AGS [29]): Active | Activity (Mus musculus): Non-toxic | Activity (AGS [30]): Active | Activity (AGS [31]): inactive | Activity (HCT-116 [32]): Active | Activity (HCT-116 [33]): Active | Activity (AGS [34]): 8.29% | Activity (HCT-116 [35]): 1.67% | Activity (HCT-116 [36]): Active | Activity (AGS [37]): Dose-dependent effect
